Consider 31 compounds from patent publication US20230357269A1 (LES LABORATOIRES SERVIER, priority 2020, published 2023).

Each structure is given as a SMILES string. A value given as a limit tells only on which side of the number the result lay.

As usually defined, the IC50 is the concentration at which inhibition is half-maximal.

This assay has as its target human recombinant LRRK2 protein (Homo sapiens (Human), UniProt Q5S007). Description: LRRK2 Kinase Activity Assay (ADP-Glo). It counts as biochemical. The note with it: LRRK2 wt; LRRKtide peptide and ATP substrates; 1h-incubation at 37° C. In short, it runs like this: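 Recombinant human LRRK2 acted on LRRKtide peptide and ATP for 1 h at 37 °C. ADP formed was detected by ADP-Glo luminescence (ATP depletion, then ADP-to-ATP conversion and luciferase). IC50s came from curve fits over 10 concentrations (N=2).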
A general note: In ADP-Glo the light output rises with the ADP produced.

Chain of human recombinant LRRK2 protein (Q5S007 whole entry): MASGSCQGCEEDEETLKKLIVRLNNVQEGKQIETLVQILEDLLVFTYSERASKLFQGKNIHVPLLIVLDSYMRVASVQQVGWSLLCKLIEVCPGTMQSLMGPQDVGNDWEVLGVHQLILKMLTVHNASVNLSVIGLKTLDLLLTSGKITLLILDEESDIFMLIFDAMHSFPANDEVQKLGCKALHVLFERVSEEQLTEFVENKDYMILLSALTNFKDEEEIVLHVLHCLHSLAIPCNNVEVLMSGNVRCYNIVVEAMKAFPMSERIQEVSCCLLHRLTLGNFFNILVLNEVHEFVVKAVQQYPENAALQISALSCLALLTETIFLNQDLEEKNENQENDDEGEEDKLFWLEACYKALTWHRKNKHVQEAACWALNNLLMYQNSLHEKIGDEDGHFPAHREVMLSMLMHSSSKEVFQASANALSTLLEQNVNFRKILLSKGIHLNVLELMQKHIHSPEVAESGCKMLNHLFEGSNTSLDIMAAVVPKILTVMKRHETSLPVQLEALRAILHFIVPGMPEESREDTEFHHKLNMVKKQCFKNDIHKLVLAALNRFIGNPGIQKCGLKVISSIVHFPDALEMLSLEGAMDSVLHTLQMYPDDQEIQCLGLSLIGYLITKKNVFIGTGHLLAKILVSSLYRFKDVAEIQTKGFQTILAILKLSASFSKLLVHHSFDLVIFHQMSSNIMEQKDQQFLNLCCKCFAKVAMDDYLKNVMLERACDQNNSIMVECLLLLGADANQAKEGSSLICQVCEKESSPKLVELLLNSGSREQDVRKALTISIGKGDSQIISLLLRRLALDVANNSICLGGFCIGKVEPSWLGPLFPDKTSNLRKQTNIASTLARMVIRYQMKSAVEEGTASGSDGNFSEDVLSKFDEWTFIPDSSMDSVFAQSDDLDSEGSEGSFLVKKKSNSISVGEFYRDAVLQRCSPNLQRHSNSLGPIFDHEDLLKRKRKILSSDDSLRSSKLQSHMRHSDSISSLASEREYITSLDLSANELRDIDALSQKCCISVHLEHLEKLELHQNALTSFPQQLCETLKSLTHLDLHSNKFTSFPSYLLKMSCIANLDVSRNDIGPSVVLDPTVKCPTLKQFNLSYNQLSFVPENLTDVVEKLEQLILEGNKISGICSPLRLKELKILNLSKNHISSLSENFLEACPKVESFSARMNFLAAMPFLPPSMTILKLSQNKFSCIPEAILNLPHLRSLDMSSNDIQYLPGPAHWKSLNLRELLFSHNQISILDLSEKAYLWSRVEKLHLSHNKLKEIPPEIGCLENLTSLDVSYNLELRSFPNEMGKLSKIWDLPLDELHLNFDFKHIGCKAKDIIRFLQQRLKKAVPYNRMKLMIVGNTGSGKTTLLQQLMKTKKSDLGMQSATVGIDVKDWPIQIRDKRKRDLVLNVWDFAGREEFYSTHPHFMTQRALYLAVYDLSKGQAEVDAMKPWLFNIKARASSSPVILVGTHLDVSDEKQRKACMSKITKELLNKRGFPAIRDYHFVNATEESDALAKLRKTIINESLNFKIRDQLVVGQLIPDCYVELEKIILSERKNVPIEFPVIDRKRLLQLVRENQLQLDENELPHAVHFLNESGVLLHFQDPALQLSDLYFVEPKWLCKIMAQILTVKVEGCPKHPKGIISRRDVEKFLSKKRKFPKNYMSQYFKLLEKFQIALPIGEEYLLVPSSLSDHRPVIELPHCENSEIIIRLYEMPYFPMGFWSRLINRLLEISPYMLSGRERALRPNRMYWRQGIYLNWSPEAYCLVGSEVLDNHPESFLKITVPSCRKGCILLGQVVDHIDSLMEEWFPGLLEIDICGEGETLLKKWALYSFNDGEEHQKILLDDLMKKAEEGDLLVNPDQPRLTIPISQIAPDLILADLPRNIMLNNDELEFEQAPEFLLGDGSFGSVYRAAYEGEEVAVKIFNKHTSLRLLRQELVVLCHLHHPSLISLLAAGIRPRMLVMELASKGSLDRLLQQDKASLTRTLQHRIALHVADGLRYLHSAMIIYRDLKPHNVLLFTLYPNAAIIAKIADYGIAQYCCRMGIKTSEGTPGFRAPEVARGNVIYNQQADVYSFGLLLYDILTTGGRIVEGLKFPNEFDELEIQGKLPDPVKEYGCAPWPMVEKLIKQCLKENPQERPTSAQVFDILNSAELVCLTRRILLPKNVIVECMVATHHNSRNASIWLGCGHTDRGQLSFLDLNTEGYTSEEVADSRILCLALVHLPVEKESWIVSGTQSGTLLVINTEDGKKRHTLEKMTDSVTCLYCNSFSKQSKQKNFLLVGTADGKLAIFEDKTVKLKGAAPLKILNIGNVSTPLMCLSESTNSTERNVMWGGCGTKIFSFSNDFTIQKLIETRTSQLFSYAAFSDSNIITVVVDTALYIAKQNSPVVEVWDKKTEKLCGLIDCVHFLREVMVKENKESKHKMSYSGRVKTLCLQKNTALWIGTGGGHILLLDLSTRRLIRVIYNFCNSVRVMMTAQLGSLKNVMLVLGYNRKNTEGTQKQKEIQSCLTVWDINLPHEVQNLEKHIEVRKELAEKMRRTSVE

As to `O=C1NCCCOc2ccc3[nH]nc(c3c2)-c2cc(cc(N3CCOCC3)c2)CO1` [Example 16, 4-(morpholin-4-yl)-8,14-dioxa-10,19,20-triazatetracyclo[13.5.2.1^2,6.0^18,21]tricosa-1(20),2,4,6(23),15,17,21-heptaen-9-one], the 50% inhibitory concentration (IC50) was less than 10 nM.
Under `CO[C@@H]1CCN(c2cc3nc(n2)COC(=O)NCC[C@@H](C)Oc2ccc4[nH]nc-3c4c2)C1` [Example 137, (13R)-4-[(3R)-3-methoxypyrrolidin-1-yl]-13-methyl-8,14-dioxa-5,10,19,20,23-pentaazatetracyclo[13.5.2.1^2,6.0^18,21]tricosa-1(20),2,4,6(23),15,17,21-heptaen-9-one] stands less than 10 nM; under `C[C@@H]1CCNC(=O)OCc2cncc(c2)-c2n[nH]c3ccc(cc23)O1` [Example 102, (13R)-13-methyl-8,14-dioxa-4,10,19,20-tetraazatetracyclo[13.5.2.1^2,6.0^18,21]tricosa-1(20),2(23),3,5,15(22),16,18(21)-heptaen-9-one], less than 10 nM.
Under `O=C1NCCCOc2ccc3[nH]nc(c3c2)-c2ccc(N3CCOCC3)c(c2)CO1` [Example 45, 5-(morpholin-4-yl)-8,14-dioxa-10,19,20-triazatetracyclo[13.5.2.1^2,6.0^18,21]tricosa-1(20),2,4,6(23),15,17,21-heptaen-9-one] stands less than 10 nM; under `O=C1NCCCOc2ccc3[nH]nc(c3c2)-c2cnn(c2)C(C2CC2)CO1` (stereo not shown) [Example 103, 6-cyclopropyl-8,14-dioxa-4,5,10,19,20-pentaazatetracyclo[13.5.2.1^2,5.0^18,21]tricosa-1(20),2(23),3,15(22),16,18(21)-hexaen-9-one], less than 10 nM.
Under `O=C1NCCCOc2ccc3[nH]nc(c3c2)-c2cc(cc(C3=CCOC3)c2)CO1` [Example 37, 4-(2,5-dihydrofuran-3-yl)-8,14-dioxa-10,19,20-triazatetracyclo[13.5.2.1^2,6.0^18,21]tricosa-1(20),2,4,6(23),15,17,21-heptaen-9-one] stands less than 10 nM.
On to `C[C@@H]1CCNC(=O)OCc2cccc(c2)-c2n[nH]c3ncc(cc23)O1` [Example 165, (13R)-13-methyl-8,14-dioxa-10,17,19,20-tetraazatetracyclo[13.5.2.1^2,6.0^18,21]tricosa-1(20),2(23),3,5,15(22),16,18(21)-heptaen-9-one], for which the IC50 is less than 10 nM.
Under `C[C@@H]1CCNC(=O)OCc2nccc(n2)-c2n[nH]c3ccc(cc23)O1` [Example 105, (13R)-13-methyl-8,14-dioxa-5,10,19,20,23-pentaazatetracyclo[13.5.2.1^2,6.0^18,21]tricosa-1(20),2,4,6(23),15,17,21-heptaen-9-one] stands less than 10 nM; under `C[C@@H]1CCNC(=O)OCc2cccc(c2)-c2n[nH]c3c(F)cc(cc23)O1` [Example 153, (13R)-17-fluoro-13-methyl-8,14-dioxa-10,19,20-triazatetracyclo[13.5.2. 1^2,6.0^18,21]tricosa-1(20),2(23),3,5,15(22),16,18(21)-heptaen-9-one], less than 10 nM; under `O=C1NCCCOc2ccc3[nH]nc(c3c2)-c2cc(cc(N3CCC3)c2)CO1` [Example 35, 4-(azetidin-1-yl)-8,14-dioxa-10,19,20-triazatetracyclo[13.5.2.1^2,6.0^18,21]tricosa-1(20),2,4,6(23),15,17,21-heptaen-9-one], less than 10 nM.
To `O=C1NCCCOc2ccc3[nH]nc(c3c2)-c2cc(cc(N3C[C@@H]4C[C@H]3CO4)c2)CO1` [Example 40] belongs less than 10 nM; to `Cc1c(F)cc2cc1COC(=O)NCCCOc1ccc3[nH]nc-2c3c1` [Example 28, 4-fluoro-5-methyl-8,14-dioxa-10,19,20-triazatetracyclo[13.5.2.1^2,6.0^18,21]tricosa-1(20),2,4,6(23),15,17,21-heptaen-9-one], less than 10 nM; to `O=C1OC2CN1CCCOc1ccc3[nH]nc(c3c1)-c1cc(F)cc2c1` (stereo not shown) [Example 60, 4-fluoro-8,14-dioxa-10,19,20-triazapentacyclo[13.5.2.1^2,6.1^7,10.0^18,21]tetracosa-1(20),2(24),3,5,15(22),16,18(21)-heptaen-9-one], less than 10 nM.
Under `O=C1NCCCOc2ccc3[nH]nc(c3c2)-c2ccn(c2)CCO1` [Example 99, 8,14-dioxa-5,10,19,20-tetraazatetracyclo[13.5.2.1^2,5.0^18,21]tricosa-1(20),2(23),3,15(22),16,18(21)-hexaen-9-one] stands less than 10 nM.
As to `O=C1NCCCOc2ccc3[nH]nc(c3c2)-c2cncc(c2)CO1` [Example 1, 8,14-dioxa-4,10,19,20-tetraazatetracyclo[13.5.2.1^2,6.0^18,21]tricosa-1(20),2,4, 6(23),15,17,21-heptaen-9-one], the half-maximal inhibitory concentration (IC50) is less than 10 nM.
Under `O=C1NCCC2(CC2)Oc2ccc3[nH]nc(c3c2)-c2cccc(c2)CO1` [Example 175, 8′,14′-dioxa-10′,19′,20′-triazaspiro[cyclopropane-1,13′-tetracyclo[13.5.2.1^2,6.0^18,21]tricosane]-1′(20′),2′(23′),3′,5′,15′(22′),16′,18′(21′)-heptaen-9′-one] stands less than 10 nM.
Under `CC1OC(=O)NCCCOc2ccc3[nH]nc(c3c2)-c2cncc1c2` (stereo not shown) [Example 107, 7-methyl-8,14-dioxa-4,10,19,20-tetraazatetracyclo[13.5.2.1^2,6.0^18,21]tricosa-1(20),2,4,6(23),15,17,21-heptaen-9-one] stands less than 10 nM.
Under `C[C@@H]1CCNC(=O)OCc2nc(cn2C)-c2n[nH]c3ccc(cc23)O1` [Example 158, (12R)-4,12-dimethyl-7,13-dioxa-4,9,18,19,22-pentaazatetracyclo[12.5.2. 1^2,5.0^17,20]docosa-1(19),2,5(22),14(21),15,17(20)-hexaen-8-one] stands 10 to 100 nM.
As for `O=C1NCCCOc2ccc3[nH]nc(c3c2)-c2cc(cc(N3CCC(F)(F)CC3)c2)CO1` [Example 20, 4-(4,4-difluoropiperidin-1-yl)-8,14-dioxa-10,19,20-triazatetracyclo[13.5.2.1^2,6.0^18,21]tricosa-1(20),2,4,6(23),15,17,21-heptaen-9-one], the IC50 was less than 10 nM.
Under `C[C@@H]1CCNC(=O)OCc2cccc(c2)-c2n[nH]c3ccc(nc23)O1` [Example 157, (13R)-13-methyl-8,14-dioxa-10,19,20,22-tetraazatetracyclo[13.5.2. 1^2,6.0^18,21]tricosa-1(20),2(23),3,5,15,17,21-heptaen-9-one] stands less than 10 nM; under `C[C@@H]1CCNC(=O)OCc2cccc(n2)-c2n[nH]c3ccc(cc23)O1` [Example 114, (13R)-13-methyl-8,14-dioxa-10,19,20,23-tetraazatetracyclo[13.5.2.1^2,6.0^18,21]tricosa-1(20),2,4,6(23),15,17,21-heptaen-9-one], less than 10 nM; under `O=C1NCCOc2ccc3[nH]nc(c3c2)-c2cccc(c2)CCO1` [Example 24, 9,14-dioxa-11,19,20-triazatetracyclo[13.5.2.1^2,6.0^18,21]tricosa-1(20),2,4, 6(23),15,17,21-heptaen-10-one], 10 to 100 nM.
Under `C[C@@H]1CCNC(=O)OCc2cccc(c2)-c2n[nH]c3cnc(cc23)O1` [Example 162, (13R)-13-methyl-8,14-dioxa-10,16,19,20-tetraazatetracyclo[13.5.2.1^2,6.0^18,21]tricosa-1(20),2(23),3,5,15(22),16,18(21)-heptaen-9-one] stands less than 10 nM; under `O=C1NCCCOc2ccc3[nH]nc(c3c2)-c2ccn(n2)CCO1` [Example 84, 8,14-dioxa-5,10,19,20,23-pentaazatetracyclo[13.5.2.1^2,5.0^18,21]tricosa-1(20),2(23),3,15(22),16,18(21)-hexaen-9-one], 10 to 100 nM.
To `CC1OC(=O)NCCCOc2ccc3[nH]nc(c3c2)-c2cc(F)cc1c2` (stereo not shown) [Example 56, 4-fluoro-7-methyl-8,14-dioxa-10,19,20-triazatetracyclo[13.5.2.1^2,6.0^18,21]tricosa-1(20),2,4,6(23),15,17,21-heptaen-9-one] belongs less than 10 nM.
In the case of `C[C@@H]1CCNC(=O)OCc2cccc(c2)-c2n[nH]c3ccc(cc23)O1` [Example 63, (13R)-13-methyl-8,14-dioxa-10,19,20-triazatetracyclo[13.5.2.1^2,6.0^18,21]tricosa-1(20),2(23),3,5,15(22),16,18(21)-heptaen-9-one], the IC50 was less than 10 nM.
Under `CC1Cn2cc(cn2)-c2n[nH]c3ccc(cc23)OCCCNC(=O)O1` (stereo not shown) [Example 94, 7-methyl-8,14-dioxa-4,5,10,19,20-pentaazatetracyclo[13.5.2.1^2,5.0^18,21]tricosa-1(20),2(23),3,15(22),16,18(21)-hexaen-9-one] stands less than 10 nM; under `O=C1OCc2cncc(c2)-c2n[nH]c3ccc(cc23)OCC2CCN1C2` (stereo not shown) [Example 98, 8,15-dioxa-4,10,20,21-tetraazapentacyclo[14.5.2.1^2,6.1^10,13.0^19,22]pentacosa-1(21),2(25),3,5,16(23),17,19(22)-heptaen-9-one], less than 10 nM; under `CC1CCNC(=O)OCc2cc(F)cc(c2)-c2n[nH]c3ccc(cc23)O1` (single isomer, unassigned) [Example 101, (13R) or (13S)-4-fluoro-13-methyl-8,14-dioxa-10,19,20-triazatetracyclo[13.5.2.1^2,6.0^18,21]tricosa-1(20),2(23),3,5,15(22),16,18(21)-heptaen-9-one], less than 10 nM.
To `O=C1NCCCOc2ccc3[nH]nc(c3c2)-c2cc(cc(OCCN3CCOCC3)c2)CO1` [Example 66, 4-[2-(morpholin-4-yl)ethoxy]-8,14-dioxa-10,19,20-triazatetracyclo[13.5.2.1^2,6.0^18,21]tricosa-1(20),2(23),3,5,15(22),16,18(21)-heptaen-9-one] belongs less than 10 nM; to `CC1OC(=O)NCCCOc2ccc3[nH]nc(c3c2)-c2cccc1c2` (stereo not shown) [Example 22, 7-methyl-8,14-dioxa-10,19,20-triazatetracyclo[13.5.2.1^2,6.0^18,21]tricosa-1(20), 2,4,6(23),15,17,21-heptaen-9-one], less than 10 nM.
